From patent publication US20170129911A1, “COMPLEXES COMPRISING A PLATINUM COMPOUND AND AN IMMUNE CHECKPOINT INHIBITOR AND RELATED METHODS” (Massachusetts Institute of Technology, priority 2015, published 2017)

How the values were obtained:
SKOV3 cells [1] = assay: Immunoblotting of DNA damage response markers; format: cell-based, human; conditions: up to 48 h and 72 h
Description: The ability of 2 to induce DNA damage was investigated by monitoring changes in expression of markers of the damage response pathway by immunoblotting analyses.
Cells were washed with PBS, scraped into SDS-PAGE loading buffer (64 mM Tris-HCl (pH 6.8)/9.6% glycerol/2% SDS/5% β-mercaptoethanol/0.01% Bromophenol Blue), and incubated at 95° C. for 10 min. Whole cell lysates were resolved by 4-20% sodium dodecylsulphate polyacylamide gel electrophoresis (SDS-PAGE; 200 V for 25 min) followed by electro transfer to polyvinylidene difluoride membrane, PVDF (350 mA for 1 h). Membranes were blocked in 5% (w/v) bovine serum albumin in PBST (PBS/0.1% Tween 20) and incubated with the appropriate primary antibodies (Cell Signalling Technology and Santa Cruz). After incubation with horseradish peroxidase-conjugated secondary antibodies (Cell Signalling Technology), 1:1000, immuno complexes were detected with the ECL detection reagent (BioRad) and analyzed using UVP biospectrum imaging system fitted with a chemiluminescence filter.

T-cells = assay: Mixed leukocyte reaction (T-cell proliferation), PBMC/SKOV3 coculture; format: cell-based, human; conditions: SKOV3/MLR coculture, 2 10 μM, 6 days, CFSE flow cytometry
Description: To target a key component of the immunosuppression promoting IDO-AHR-IL6 loop, the immunomodulatory phenotype of 2 was investigated. A mixed leukocyte reaction (MLR) was carried out. In this experiment, suspended 2×10^5 peripheral blood mononuclear cells (PBMCs) stimulated with phytohemagglutinin (PHA-P), and 2×10^5 cells of PBMCs from unrelated healthy donors as responders stained with carboxyfluorescein succinimidyl ester (CFSE), a cell permeable fluorescent dye that binds amine residues (mostly lysines) covalently, through its succinimidyl ester group were cocultured with adherent SKOV-3 (2000 cells). After 6 days of culture, PBMCs were harvested by centrifugation of medium, stained with APC-anti CD3 and T-cell proliferation was assessed by flow cytometry. T-cells express CD3, a cell surface multimeric protein complex involved in T-cell development and activation.
SKOV3 cells (2×10^3) were seeded in 6-well plates. […] The T-cell population of PBMCs was measured by FACS Calibur-HTS flow cytometer (BD Biosciences) after staining with APC-anti CD3 antibody. PHA-P stimulated PBMCs (2×10^5) and carboxyfluorescein succinimidyl ester (CFSE) stained PBMCs (2×10^5) from unrelated donors were added in co-cultures of SKOV3 tumor cells (treated and untreated) and incubated for six days at 37° C., the and CFSE signal analyzed by flow cytometry on days 1 and 6.

SKOV3 cells [2] = assay: Annexin V/sytox green apoptosis dead cell assay; format: cell-based, human; conditions: 72 h of treatment
Text: Therapeutic nanoparticles (NPs) have been widely investigated for their potential to enhance cancer treatment. The chemical structure of 2 bears both hydrophilic (1-D-MT) and hydrophobic (hexadecyl isocyanate) axial ligands, conferring amphiphilic character to the molecule. In some cases, the hexadecyl isocyanate axial ligand facilitate non-covalent binding to human serum albumin, protecting the Pt(IV) center from premature reduction in blood. In the presence of the biodegradable block copolymer, poly(lactic-co-glycolic acid)-polyethylene glycol (PLGA-PEG), 2 readily self-assembles into NPs suitable for preclinical studies (FIG. 5A). […] Having obtained the nanoparticles, the ability of 2 and its NP to induce apoptosis was investigated. Translocation of phosphatidylserine residues to the exterior is a characteristic of apoptotic cells, which have a compromised cell membrane, and can be detected by annexin V. Using a dual staining annexin V/sytox green apoptosis dead cell assay, we examined the apoptotic behavior of SKOV3 cells after 72 h of treatment with 2 and its NP by flow cytometry.

Solubility in PBS = format: physicochemical
Eμ-Myc lymphoma cells = assay: RNAi signature (GFP competition) assay; conditions: LD80-90 dose, 72 h

CCCCCCCCCCCCCCCCNC(=O)[O][Pt]([NH2])([NH2])([Cl])([Cl])[O]C(=O)CCC(=O)NCCOC(=O)[C@H](N)Cc1cn(C)c2ccccc12 (mixture of isomers) [Compound 2, cis,cis,trans-[Pt(NH3)2Cl2(O2CC2H4OCNHC2H4O2C-D-1MT)(O2CNHC16H33)]]
expression of DNA damage response markers (SKOV3 cells [1]): marked time-dependent increase in expression of phosphorylated ATR, ATM, BRCA1, Chk1, Chk2, H2AX, and p53 | alloreactive T-cell proliferation (T-cells): enhancement of alloreactive T-cell proliferation | induction of apoptosis (SKOV3 cells [2]): induced large populations of SKOV3 cells to undergo apoptosis | solubility in PBS (Solubility in PBS): low solubility | RNAi signature (Eμ-Myc lymphoma cells): strong p53 and Chk2 shRNA enrichment
